Results from PMC8283759, “A Flavoprotein Dioxygenase Steers Bacterial Tropone Biosynthesis via Coenzyme A-Ester Oxygenolysis and Ring Epoxidation” (Journal of the American Chemical Society, 2021).

Molecular target: T1, TdaEBp (Burkholderia plantarii, UniProt A0A0B6RWE3)
T1 construct: gene BGL_1c08010; heterologously produced and purified, N-terminal GB1 (subunit B of protein G) and C-terminal polyhistidine tag
Assay: UV-vis of purified protein (c280/c450)
Assay type: binding
Conditions: loosely bound, co-purified; partial occupancy

T1 sequence (A0A0B6RWE3 entry or part of it): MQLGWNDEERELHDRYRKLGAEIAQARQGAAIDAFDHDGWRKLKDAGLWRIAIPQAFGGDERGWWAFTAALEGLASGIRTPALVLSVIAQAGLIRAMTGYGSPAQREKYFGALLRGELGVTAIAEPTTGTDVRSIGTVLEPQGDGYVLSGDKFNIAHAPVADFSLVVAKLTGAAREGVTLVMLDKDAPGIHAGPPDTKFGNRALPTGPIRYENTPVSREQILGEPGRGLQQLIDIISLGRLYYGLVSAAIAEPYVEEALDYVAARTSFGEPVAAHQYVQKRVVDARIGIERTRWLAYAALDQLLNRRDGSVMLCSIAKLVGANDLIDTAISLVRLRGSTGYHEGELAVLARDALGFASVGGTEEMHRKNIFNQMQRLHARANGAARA

Cc1cc2nc3c(=O)[nH]c(=O)nc-3n(C[C@H](O)[C@H](O)[C@H](O)COP(=O)(O)OP(=O)(O)OC[C@H]3O[C@@H](n4cnc5c(N)ncnc54)[C@H](O)[C@@H]3O)c2cc1C [FAD]
UV-vis of purified protein (c280/c450): TdaE^Bp was weakly yellow due to a loosely bound FAD cofactor
